US7217726B2, “Antibacterial agents” (Orchid Chemicals & Pharmaceuticals Limited, priority 2002, dated 2007)
≈ marks a conversion by molar mass, not a printed value.

How the values were obtained:
[1] = system: S. epidermidis MRO 02046; assay: Agar Dilution Method MIC, S. epidermidis MRO 02046; assay type: cell-based; conditions: Staphylococcus epidermidis, MRO02046, Mueller Hinton Agar, 35° Celsius, 20 hours, read-out: Minimum Inhibitory Concentration (MIC in μg/ml)
Method: (§1) Briefly, the compounds of invention were weighed, dissolved in Dimethyl Sulfoxide, serially diluted in the same solvent and then incorporated into molten Mueller Hinton Agar in a petridish before solidification, with each petridish containing a different concentration of a compound.
(§2) The Bacterial Inoculum was prepared by touching the tops of 3 to 5 well isolated bacterial colonies with the same morphological appearance from an 18 hour old culture with an inoculating loop, transfering the growth to a tube containing 5 ml of normal saline and adjusting the turbidity of the saline suspension to 0.5 Macfarland Turbidity Standard equivalent to a bacterial population of 1.5×10^8 colony forming units (CFU) per millilitre of suspension.
(§3) The bacterial inoculum prepared in the above manner was inoculated onto petri dishes containing Mueller Hinton Agar which had earlier been incorporated with different dilutions of the compounds of invention by a Multipoint Inoculator with each inoculum spot containing approximately 1×10^4 colony forming units (CFU) of bacteria.
(§4) The inoculated petridishes were incubated at 35° Celsius in an ambient atmosphere for 20 hours. Petridishes containing different concentrations of Vancomycin and Oxacillin and inoculated with Staphylococcus aureus, Coagulase Negative Staphylococci and Enterococci were incubated for 24 hours.

[2] = system: S. aureus ATCC 43300; assay: Agar Dilution Method MIC, S. aureus ATCC 43300; assay type: cell-based; conditions: Staphylococcus aureus, ATCC43300, Mueller Hinton Agar, 35° Celsius, 20 hours, read-out: Minimum Inhibitory Concentration (MIC in μg/ml)
Method: as §1, §2, §3, §4

[3] = system: M. catarrhalis ATCC 43627; assay: Agar Dilution Method MIC, M. catarrhalis ATCC 43627; assay type: cell-based, Morexella catarrhalis; conditions: Moraxella catarrhalis, ATCC43627, Mueller Hinton Agar, 35° Celsius, 20 hours, read-out: Minimum Inhibitory Concentration (MIC in μg/ml)
Method: as §1, §2, §3, §4

[4] = system: S. aureus MRO 00001; assay: Agar Dilution Method MIC, S. aureus MRO 00001; assay type: cell-based; conditions: Staphylococcus aureus, MRO00001, Mueller Hinton Agar, 35° Celsius, 20 hours, read-out: Minimum Inhibitory Concentration (MIC in μg/ml)
Method: as §1, §2, §3, §4

[5] = system: S. aureus MRO 00055; assay: Agar Dilution Method MIC, S. aureus MRO 00055; assay type: cell-based; conditions: Staphylococcus aureus, MRO00055, Mueller Hinton Agar, 35° Celsius, 20 hours, read-out: Minimum Inhibitory Concentration (MIC in μg/ml)
Method: as §1, §2, §3, §4

[6] = system: S. aureus MRO 00030; assay: Agar Dilution Method MIC, S. aureus MRO 00030; assay type: cell-based; conditions: Staphylococcus aureus, MRO00030, Mueller Hinton Agar, 35° Celsius, 20 hours, read-out: Minimum Inhibitory Concentration (MIC in μg/ml)
Method: as §1, §2, §3, §4

[7] = system: E. fecalis MRO 04045; assay: Agar Dilution Method MIC, E. fecalis MRO 04045; assay type: cell-based; conditions: Enterococcus faecalis, MRO04045, Mueller Hinton Agar, 35° Celsius, 20 hours, read-out: Minimum Inhibitory Concentration (MIC in μg/ml)
Method: as §1, §2, §3, §4

[8] = system: S. aureus MRO 00013; assay: Agar Dilution Method MIC, S. aureus MRO 00013; assay type: cell-based; conditions: Staphylococcus aureus, MRO00013, Mueller Hinton Agar, 35° Celsius, 20 hours, read-out: Minimum Inhibitory Concentration (MIC in μg/ml)
Method: as §1, §2, §3, §4

[9] = system: M. catarrhalis ATCC 43617; assay: Agar Dilution Method MIC, M. catarrhalis ATCC 43617; assay type: cell-based, Morexella catarrhalis; conditions: Moraxella catarrhalis, ATCC43617, Mueller Hinton Agar, 35° Celsius, 20 hours, read-out: Minimum Inhibitory Concentration (MIC in μg/ml)
Method: as §1, §2, §3, §4

[10] = system: E. faecalis ATCC 29212; assay: Agar Dilution Method MIC, E. faecalis ATCC 29212; assay type: cell-based; conditions: Enterococcus faecalis, ATCC29212, Mueller Hinton Agar, 35° Celsius, 20 hours, read-out: Minimum Inhibitory Concentration (MIC in μg/ml)
Method: as §1, §2, §3, §4

[11] = system: S. aureus ATCC 29213; assay: Agar Dilution Method MIC, S. aureus ATCC 29213; assay type: cell-based; conditions: Staphylococcus aureus, ATCC29213, Mueller Hinton Agar, 35° Celsius, 20 hours, read-out: Minimum Inhibitory Concentration (MIC in μg/ml)
Method: as §1, §2, §3, §4

[12] = system: M. catarrhalis ATCC 43628; assay: Agar Dilution Method MIC, M. catarrhalis ATCC 43628; assay type: cell-based, Morexella catarrhalis; conditions: Moraxella catarrhalis, ATCC43628, Mueller Hinton Agar, 35° Celsius, 20 hours, read-out: Minimum Inhibitory Concentration (MIC in μg/ml)
Method: as §1, §2, §3, §4

[13] = system: S. aureus MRO 00003; assay: Agar Dilution Method MIC, S. aureus MRO 00003; assay type: cell-based; conditions: Staphylococcus aureus, MRO00003, Mueller Hinton Agar, 35° Celsius, 20 hours, read-out: Minimum Inhibitory Concentration (MIC in μg/ml)
Method: as §1, §2, §3, §4

[14] = system: S. aureus MRO 00048; assay: Agar Dilution Method MIC, S. aureus MRO 00048; assay type: cell-based; conditions: Staphylococcus aureus, MRO00048, Mueller Hinton Agar, 35° Celsius, 20 hours, read-out: Minimum Inhibitory Concentration (MIC in μg/ml)
Method: as §1, §2, §3, §4

[15] = system: E. faecalis ATCC 51299; assay: Agar Dilution Method MIC, E. faecalis ATCC 51299; assay type: cell-based; conditions: Enterococcus faecalis, ATCC51299, Mueller Hinton Agar, 35° Celsius, 20 hours, read-out: Minimum Inhibitory Concentration (MIC in μg/ml)
Method: as §1, §2, §3, §4

[16] = system: S. aureus MRO 00059; assay: Agar Dilution Method MIC, S. aureus MRO 00059; assay type: cell-based; conditions: Staphylococcus aureus, MRO00059, Mueller Hinton Agar, 35° Celsius, 20 hours, read-out: Minimum Inhibitory Concentration (MIC in μg/ml)
Method: as §1, §2, §3, §4

Row | SMILES | MIC [1] | MIC [2] | MIC [3] | MIC [4] | MIC [5] | MIC [6] | MIC [7] | MIC [8] | MIC [9] | MIC [10] | MIC [11] | MIC [12] | MIC [13] | MIC [14] | MIC [15] | MIC [16] | melting point
1 | CC(=S)NC[C@H]1CN(c2ccc(N3CCN(C(=S)c4cnccn4)CC3)c(F)c2)C(=O)O1 [Example 14, (S)-N-[3-[3-Fluoro-4-[4-(pyrazin-2-ylthiocarbonyl)piperazin-1-yl]phenyl]-2-oxooxazolidin-5-ylmethyl]thioacetamide] | 0.25 µg/mL (≈ 0.527 µM) | 0.25 µg/mL (≈ 0.527 µM) | 2 µg/mL (≈ 4.21 µM) | 0.25 µg/mL (≈ 0.527 µM) | 0.5 µg/mL (≈ 1.05 µM) | 0.5 µg/mL (≈ 1.05 µM) | 0.25 µg/mL (≈ 0.527 µM) | 0.5 µg/mL (≈ 1.05 µM) | 2 µg/mL (≈ 4.21 µM) | 0.25 µg/mL (≈ 0.527 µM) | 0.5 µg/mL (≈ 1.05 µM) | 2 µg/mL (≈ 4.21 µM) | 0.5 µg/mL (≈ 1.05 µM) | 0.25 µg/mL (≈ 0.527 µM) | 0.25 µg/mL (≈ 0.527 µM) | 0.25 µg/mL (≈ 0.527 µM) | –
2 | CC(=S)NC[C@H]1CN(c2ccc(N3CCN(C(=S)C4CC4)CC3)c(F)c2)C(=O)O1 [Example 6, (S)-N-[3-[3-Fluoro-4-[4-(cyclopropylthiocarbonyl)piperazin-1-yl]phenyl]-2-oxooxazolidin-5-ylmethyl]thioacetamide] | 0.25 µg/mL (≈ 0.573 µM) | 0.25 µg/mL (≈ 0.573 µM) | 1 µg/mL (≈ 2.29 µM) | 0.25 µg/mL (≈ 0.573 µM) | 1 µg/mL (≈ 2.29 µM) | 0.5 µg/mL (≈ 1.15 µM) | 1 µg/mL (≈ 2.29 µM) | 1 µg/mL (≈ 2.29 µM) | 1 µg/mL (≈ 2.29 µM) | 0.5 µg/mL (≈ 1.15 µM) | 0.5 µg/mL (≈ 1.15 µM) | 1 µg/mL (≈ 2.29 µM) | 1 µg/mL (≈ 2.29 µM) | 0.25 µg/mL (≈ 0.573 µM) | 0.25 µg/mL (≈ 0.573 µM) | 0.25 µg/mL (≈ 0.573 µM) | –
3 | CC(=O)NC[C@H]1CN(c2ccc(N3CCN(C(=S)CN)CC3)c(F)c2)C(=O)O1.Cl | – | – | – | – | – | – | – | – | – | – | – | – | – | – | – | – | 202 to 204 °C
4 | CC(=S)NC[C@H]1CN(c2ccc(N3CCN(C(=O)Nc4ccc([N+](=O)[O-])cc4)CC3)c(F)c2)C(=O)O1 [Example 46] | 0.25 µg/mL (≈ 0.484 µM) | 0.25 µg/mL (≈ 0.484 µM) | 2 µg/mL (≈ 3.87 µM) | 0.25 µg/mL (≈ 0.484 µM) | 0.5 µg/mL (≈ 0.968 µM) | 0.5 µg/mL (≈ 0.968 µM) | 0.25 µg/mL (≈ 0.484 µM) | 0.5 µg/mL (≈ 0.968 µM) | 2 µg/mL (≈ 3.87 µM) | 0.25 µg/mL (≈ 0.484 µM) | 0.5 µg/mL (≈ 0.968 µM) | 2 µg/mL (≈ 3.87 µM) | 0.5 µg/mL (≈ 0.968 µM) | 0.25 µg/mL (≈ 0.484 µM) | 0.25 µg/mL (≈ 0.484 µM) | 0.5 µg/mL (≈ 0.968 µM) | –
5 | CC(=S)NC[C@H]1CN(c2ccc(N3CCN(C(=S)c4ncc[nH]4)CC3)c(F)c2)C(=O)O1 [Example 22, (S)-N-[3-[3-Fluoro-4-[4-(imidazol-2-ylthiocarbonyl)piperazin-1-yl]phenyl]-2-oxooxazolidin-5-ylmethyl]thioacetamide] | < 0.25 µg/mL | 0.5 µg/mL (≈ 1.08 µM) | 1 µg/mL (≈ 2.16 µM) | 0.5 µg/mL (≈ 1.08 µM) | 1 µg/mL (≈ 2.16 µM) | 0.5 µg/mL (≈ 1.08 µM) | 1 µg/mL (≈ 2.16 µM) | 1 µg/mL (≈ 2.16 µM) | 1 µg/mL (≈ 2.16 µM) | 0.5 µg/mL (≈ 1.08 µM) | 0.5 µg/mL (≈ 1.08 µM) | 1 µg/mL (≈ 2.16 µM) | 0.5 µg/mL (≈ 1.08 µM) | < 0.25 µg/mL | < 0.25 µg/mL | 0.5 µg/mL (≈ 1.08 µM) | –
6 | CC(=S)NC[C@H]1CN(c2ccc(N3CCN(C(=S)Cc4cccs4)CC3)c(F)c2)C(=O)O1 [Example 13, (S)-N-[3-[3-Fluoro-4-[4-(thiophen-2-ylthioacetyl)piperazin-1-yl]phenyl]-2-oxooxazolidin-5-ylmethyl]thioacetamide] | 0.25 µg/mL (≈ 0.507 µM) | 0.5 µg/mL (≈ 1.01 µM) | 2 µg/mL (≈ 4.06 µM) | 0.25 µg/mL (≈ 0.507 µM) | 1 µg/mL (≈ 2.03 µM) | 0.5 µg/mL (≈ 1.01 µM) | 1 µg/mL (≈ 2.03 µM) | 1 µg/mL (≈ 2.03 µM) | 2 µg/mL (≈ 4.06 µM) | 0.5 µg/mL (≈ 1.01 µM) | 0.25 µg/mL (≈ 0.507 µM) | 2 µg/mL (≈ 4.06 µM) | 1 µg/mL (≈ 2.03 µM) | 0.25 µg/mL (≈ 0.507 µM) | 0.5 µg/mL (≈ 1.01 µM) | 0.5 µg/mL (≈ 1.01 µM) | –
7 | CC(=S)NC[C@H]1CN(c2ccc(N3CCN(C(=S)c4ccc(Cl)s4)CC3)c(F)c2)C(=O)O1 [Example 8, (S)-N-[3-[3-Fluoro-4-[4-(5-chlorothiophen-2-ylthiocarbonyl)piperazin-1-yl]phenyl]-2-oxooxazolidin-5-ylmethyl]thioacetamide] | 0.25 µg/mL (≈ 0.487 µM) | 0.25 µg/mL (≈ 0.487 µM) | 2 µg/mL (≈ 3.9 µM) | 0.25 µg/mL (≈ 0.487 µM) | 0.5 µg/mL (≈ 0.974 µM) | 0.5 µg/mL (≈ 0.974 µM) | 0.25 µg/mL (≈ 0.487 µM) | 0.5 µg/mL (≈ 0.974 µM) | 2 µg/mL (≈ 3.9 µM) | 0.25 µg/mL (≈ 0.487 µM) | 0.5 µg/mL (≈ 0.974 µM) | 2 µg/mL (≈ 3.9 µM) | 0.5 µg/mL (≈ 0.974 µM) | 0.25 µg/mL (≈ 0.487 µM) | 0.25 µg/mL (≈ 0.487 µM) | 0.25 µg/mL (≈ 0.487 µM) | –
8 | CC(=S)NC[C@H]1CN(c2ccc(N3CCN(C(=S)c4ccc(C)s4)CC3)c(F)c2)C(=O)O1 [Example 7, (S)-N-[3-[3-Fluoro-4-[4-(5-methylthiophen-2-ylthiocarbonyl)piperazin-1-yl]phenyl]-2-oxooxazolidin-5-ylmethyl]thioacetamide] | 0.25 µg/mL (≈ 0.507 µM) | 0.5 µg/mL (≈ 1.01 µM) | 2 µg/mL (≈ 4.06 µM) | 0.25 µg/mL (≈ 0.507 µM) | 0.5 µg/mL (≈ 1.01 µM) | 0.5 µg/mL (≈ 1.01 µM) | 0.5 µg/mL (≈ 1.01 µM) | 1 µg/mL (≈ 2.03 µM) | 2 µg/mL (≈ 4.06 µM) | 0.5 µg/mL (≈ 1.01 µM) | 0.5 µg/mL (≈ 1.01 µM) | 2 µg/mL (≈ 4.06 µM) | 0.5 µg/mL (≈ 1.01 µM) | 0.5 µg/mL (≈ 1.01 µM) | 0.5 µg/mL (≈ 1.01 µM) | 0.5 µg/mL (≈ 1.01 µM) | –
